In patent US20110223597A1 (priority 2010, published 2011):

What was measured:
[1] = test system: UGTs 1A1, 1A3, 1A6, 1A7, 1A8, 1A9, 1A10, 2B4, 2B7, 2B11, 2B15 or 2B17; experiment: Screening of OLZ glucuronidation activity by homogenates of HEK293 cells over-expressing other wild-type UGTs; format: in vitro ADME, human; conditions: up to 250 μg of UGT-over-expressing cell homogenate
[2] = test system: UGT1A4 (overall OLZ glucuronidation); experiment: in vitro; conditions: human, pH 7.5
UGT1A4 = molecular target: T1, UGT1A4 (Homo sapiens, UniProt P22310); experiment: in vitro; conditions: homogenates from UGT1A4-over-expressing cells, pH 7.5, probe OLZ (olanzapine), 25 μM
T1 sequence (P22310 29-534): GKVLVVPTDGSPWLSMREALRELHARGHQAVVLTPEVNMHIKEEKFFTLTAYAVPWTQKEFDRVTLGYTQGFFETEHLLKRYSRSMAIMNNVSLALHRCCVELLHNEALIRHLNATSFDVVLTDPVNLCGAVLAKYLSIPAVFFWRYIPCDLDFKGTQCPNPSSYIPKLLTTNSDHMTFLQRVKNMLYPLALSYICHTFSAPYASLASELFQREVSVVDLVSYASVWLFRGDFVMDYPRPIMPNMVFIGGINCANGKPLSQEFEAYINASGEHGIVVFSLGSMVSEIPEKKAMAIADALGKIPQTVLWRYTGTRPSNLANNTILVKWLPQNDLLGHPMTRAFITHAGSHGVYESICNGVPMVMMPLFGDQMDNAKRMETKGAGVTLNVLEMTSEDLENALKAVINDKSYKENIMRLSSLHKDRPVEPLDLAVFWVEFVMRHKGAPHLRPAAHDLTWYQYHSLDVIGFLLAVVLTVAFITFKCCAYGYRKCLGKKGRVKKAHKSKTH
Experimental: Glucuronidation assays were performed in 50 mmol/L Tris buffer (pH 7.5), 10 mmol/L MgCl2, 4 mmol/L UDP-glucuronic acid (UDPGA), and 7.8 μmol/L to 4 mmol/L of substrate at 37° C. in a water bath for 2 h. […] Reactions were terminated by the addition of the same volume of cold acetonitrile as the initial reaction volume. Reactions were centrifuged at 13,000 g for 10 min at 4° C. and supernatants were collected. […] Elution consisted of a gradient elution starting with 87.5% buffer B (100% acetonitrile) and 17.5% buffer A [5 mmol/L ammonium acetate (pH 6.0)] for 5 min, a linear gradient to 90% buffer B over 1 min and held for 2 min, then a linear gradient back to initial conditions and held for 2 min for a total run time of 10 min. The flow rate was maintained at 0.5 mL/min. […] 1, 1997; 25(0:81-93, and by mass spectrometry as described herein. As controls, glucuronidation assays were performed using HLM as a positive control for glucuronidation activity and untransfected HEK293 cell homogenate protein as a negative control for glucuronidation activity. Four independent experiments were performed for kinetic analysis of UGT-over-expressing cell homogenates, with all assays within each experiment performed in duplicate; two independent experiments were performed for rate determination assays and three for kinetic analysis for HLM specimens.

SMILES | glucuronidation activity against OLZ in UGT screening [1] | inhibition at 2 h, 2000 μM [2] | inhibition at 2 h, 2000 μM (UGT1A4)
Cc1cc2c(s1)Nc1ccccc1N=C2N1CCN(C)CC1 [OLZ, Olanzapine] | None of the other UGTs screened | – | –
Nc1nnc(-c2cccc(Cl)c2Cl)c(N)n1 [LTG, lamotrigine] | – | 12 ± 3.4% | 41%
